Test results reported in PubChem BioAssay (NCI).
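Where inhibition never reached the appropriate level, the endpoint shown equals the highest concentration tested. Otherwise, values were interpolated linearly from a five-concentration, 48-hour dose response in 96-well plates. At the TGI there is no net growth.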

Assays:
Test in all cases: NCI-60 cell line screen, 48 h
786-0 renal = test system: 786-0 renal
A498 renal = test system: A498 renal
ACHN renal = test system: ACHN renal
BT-549 breast = test system: BT-549 breast
CAKI-1 renal = test system: CAKI-1 renal
COLO 205 colon = test system: COLO 205 colon
EKVX NSCLC = test system: EKVX NSCLC
HCT-116 colon = test system: HCT-116 colon
HCT-15 colon = test system: HCT-15 colon
HS 578T breast = test system: HS 578T breast
M14 melanoma = test system: M14 melanoma
MALME-3M melanoma = test system: MALME-3M melanoma
MDA-MB-435 = test system: MDA-MB-435
MOLT-4 leukemia = test system: MOLT-4 leukemia
NCI-H226 lung = test system: NCI-H226 lung
NCI-H522 lung = test system: NCI-H522 lung
OVCAR-4 ovarian = test system: OVCAR-4 ovarian
U251 CNS = test system: U251 CNS
UACC-62 melanoma = test system: UACC-62 melanoma
RPMI-8226 leukemia = test system: RPMI-8226 leukemia

| Compound | TGI (786-0 renal) | TGI (A498 renal) | TGI (ACHN renal) | TGI (BT-549 breast) | TGI (CAKI-1 renal) | TGI (COLO 205 colon) | TGI (EKVX NSCLC) | TGI (HCT-116 colon) | TGI (HCT-15 colon) | TGI (HS 578T breast) | TGI (M14 melanoma) | TGI (MALME-3M melanoma) | TGI (MDA-MB-435) | TGI (MOLT-4 leukemia) | TGI (NCI-H226 lung) | TGI (NCI-H522 lung) | TGI (OVCAR-4 ovarian) | TGI (U251 CNS) | TGI (UACC-62 melanoma) | TGI (RPMI-8226 leukemia) |
| --- | --- | --- | --- | --- | --- | --- | --- | --- | --- | --- | --- | --- | --- | --- | --- | --- | --- | --- | --- | --- |
| CO[C@H]1C[C@H](O[C@H]2CC[C@]3(C=O)[C@H]4CC[C@]5(C)[C@@H](C6=CC(=O)OC6)CC[C@]5(O)[C@@H]4CC[C@]3(O)C2)O[C@H](C)[C@H]1O[C@@H]1O[C@H](CO[C@@H]2O[C@H](CO)[C@@H](O)[C@H](O)[C@H]2O)[C@@H](O)[C@H](O)[C@H]1O | 0.0781 µM | 0.533 µM | 0.135 µM | 0.164 µM | 0.0456 µM | 0.348 µM | 0.0631 µM | 0.0911 µM | 0.144 µM | 0.518 µM | 0.312 µM | 0.243 µM | 0.281 µM | 1.07 µM | 0.32 µM | 0.0638 µM | 0.144 µM | 0.202 µM | 0.467 µM | – |
| CCOC(=O)c1nc2ccc(C(F)(F)F)cc2nc1Nc1ccc(OC)c(OC)c1 | > 100 µM | > 100 µM | > 100 µM | > 100 µM | 86.5 µM | > 100 µM | > 100 µM | > 100 µM | > 100 µM | > 100 µM | > 100 µM | > 100 µM | > 100 µM | > 100 µM | > 100 µM | > 100 µM | – | – | > 100 µM | > 100 µM |
| CN(C)N1C(=O)CC2(CCN(CCCC(=O)c3ccc(F)cc3)CC2)C1=O | > 100 µM | > 100 µM | > 100 µM | > 100 µM | > 100 µM | > 100 µM | – | > 100 µM | > 100 µM | > 100 µM | > 100 µM | > 100 µM | > 100 µM | > 100 µM | > 100 µM | > 100 µM | – | > 100 µM | > 100 µM | > 100 µM |
| O=C1/C(=C/c2cccc([N+](=O)[O-])c2)N=C(c2ccccc2)N1c1ccc2c(c1)Sc1cc(N3C(=O)/C(=C/c4cccc([N+](=O)[O-])c4)N=C3c3ccccc3)ccc1N2 | 46.3 µM | 55.1 µM | > 100 µM | 52.4 µM | 54 µM | > 100 µM | 62.9 µM | > 100 µM | > 100 µM | > 100 µM | 87.9 µM | 41.1 µM | 34.5 µM | > 100 µM | – | 41.9 µM | 34.5 µM | 66.5 µM | 31.7 µM | > 100 µM |
| COc1cc(C2SC(N)=Nc3c2c(C)nn3C(=O)Cc2ccccc2)ccc1O (stereo unspecified) | > 100 µM | > 100 µM | > 100 µM | > 100 µM | > 100 µM | > 100 µM | > 100 µM | > 100 µM | > 100 µM | > 100 µM | > 100 µM | > 100 µM | > 100 µM | > 100 µM | > 100 µM | > 100 µM | – | – | > 100 µM | > 100 µM |
| O=C1CCC2(c3ccc(F)cc3)Nc3ncncc3N12 (stereo unspecified) | > 10 µM | – | > 10 µM | > 10 µM | – | – | > 10 µM | – | > 10 µM | > 10 µM | > 10 µM | > 10 µM | > 10 µM | > 10 µM | > 10 µM | > 10 µM | > 10 µM | > 10 µM | > 10 µM | – |
| CC1(c2nc3cc(Cl)c(Cl)cc3[nH]2)CCC(C(=O)O)C(C)(C)O1 (stereo unspecified) | > 100 µM | – | > 100 µM | > 100 µM | > 100 µM | > 100 µM | > 100 µM | > 100 µM | > 100 µM | > 100 µM | > 100 µM | > 100 µM | > 100 µM | > 100 µM | > 100 µM | > 100 µM | > 100 µM | > 100 µM | > 100 µM | > 100 µM |
| O=C(NO)c1ccc(OCc2ccccc2)cc1 | 55.3 µM | 43.4 µM | 88.8 µM | > 100 µM | 54.2 µM | 77.6 µM | > 100 µM | 27.4 µM | 45 µM | > 100 µM | > 100 µM | – | > 100 µM | > 100 µM | > 100 µM | 51.5 µM | 75 µM | > 100 µM | 36.5 µM | > 100 µM |
| O=C(CN1C(=O)c2ccccc2C1=O)OCC1CCCN2CCCCC12 (stereo unspecified) | > 100 µM | > 100 µM | > 100 µM | > 100 µM | > 100 µM | > 100 µM | > 100 µM | > 100 µM | > 100 µM | > 100 µM | – | > 100 µM | > 100 µM | > 100 µM | > 100 µM | – | > 100 µM | > 100 µM | > 100 µM | > 100 µM |
| CCOC(=O)c1cc(C2(OC)CCN(Cc3ccccc3)C2=O)c(-c2cc(C)no2)[nH]1 (stereo unspecified) | > 100 µM | > 100 µM | > 100 µM | > 100 µM | > 100 µM | > 100 µM | > 100 µM | > 100 µM | > 100 µM | > 100 µM | > 100 µM | > 100 µM | > 100 µM | > 100 µM | – | > 100 µM | > 100 µM | > 100 µM | > 100 µM | > 100 µM |
| Cn1c(=O)c2c(nc3sc4ncccc4c(=O)n32)n(C)c1=O | > 100 µM | > 100 µM | > 100 µM | > 100 µM | > 100 µM | > 100 µM | > 100 µM | > 100 µM | > 100 µM | > 100 µM | > 100 µM | – | > 100 µM | > 100 µM | > 100 µM | – | > 100 µM | > 100 µM | > 100 µM | > 100 µM |
| CO/N=C/c1c(-c2ccc(Cl)cc2)c(/C=N/OC)n2c1sc1ccccc12 | > 100 µM | – | > 100 µM | > 100 µM | > 100 µM | > 100 µM | > 100 µM | > 100 µM | > 100 µM | > 100 µM | – | > 100 µM | > 100 µM | > 100 µM | – | > 100 µM | > 100 µM | > 100 µM | > 100 µM | – |
